The results in this text go back to patent publication US11345669B2, “Urea derivatives and methods of use thereof” (NodThera Limited, priority 2017, dated 2022).

The subject of one experiment is IL1-β release upon NLRP3 activation in peripheral blood mononuclear cells (PBMC). Put plainly: PBMC IC50 Determination Assay. Format: cell-based. Particulars: Homo sapiens, PBMC, read-out: PBMCs, IC50, μM. As to the method:
PBMC IC50 Determination Assay
The compounds of the present disclosure were tested for their inhibitory activity against IL1-β release upon NLRP3 activation in peripheral blood mononuclear cells (PBMC).
Isolated cells were seeded into the wells of a 96-well plate and incubated for 3 h with lipopolysaccharide (LPS). Following medium exchange, the compounds of the present disclosure were added (a single compound per well) and the cells were incubated for 30 min. Next, the cells were stimulated either with ATP (5 mM) or nigericin (10 μM) for 1 h and the cell culture media from the wells were collected for further analysis.
The release of IL-1β into the media was determined by a quantitative detection of IL-1β in 5 the media using an IL-1β enzyme-linked immunosorbent assay (ELISA) Ready-SET-Go!, eBioscience cat. […] Subsequently, plates were blocked with blocking buffer for 1 h at room temperature (rt) and after washing with a buffer (PBS with 0.05% Tween-20) incubated with protein standard and culture media. […] Plates were washed and incubated with HRP-streptavidin for 30 min at rt and washed again. The signal was developed after addition of 3,39,S,59-tetramethylbenzidine-peroxidase (TMB) until color appeared and the reaction was stopped by 2 M H2SO4. A microplate spectrophotometer (BioTek) was used to detect signals with 450 nm. The detection range of IL-1β ELISA was […].
For the molecule `COC(=O)CC[C@@H](NC(=O)Nc1c2c(cc3c1CCC3)CCC2)C(=O)OC` [Example 2S, 1,5-dimethyl(2R)-2-{[(1,2,3,5,6,7-hexahydro-s-indacen-4-yl)carbamoyl]amino}pentanedioate], the IC50 was 3.5 µM.

Staying with this experiment, now noted: Homo sapiens; PBMC from buffy coats, LPS 3 h, compound 30 min, then ATP (5 mM) or nigericin (10 μM) for 1 h; IL-1β in media by ELISA; read-out: PBMCs, IC50.
In the case of `COC(=O)C(Cn1ccnc1)NC(=O)Nc1c2c(cc3c1CCC3)CCC2` (centres unmarked) [Example 2DD, methyl 2-{[(1,2,3,5,6,7-hexahydro-s-indacen-4-yl)carbamoyl]amino}-3-(1H-imidazol-1-yl)propanoate], the IC50 came to 6.2 µM.

Regarding `COC(=O)C(Cc1ccccc1O)NC(=O)Nc1c2c(cc3c1CCC3)CCC2` (centres unmarked) [Example 2B, Methyl2-{[(1,2,3,5,6,7-hexahydro-s-indacen-4-yl)carbamoyl]amino}-3-(2-hydroxyphenyl)propanoate], the IC50 is 0.06 µM.

For `COC(=O)C(Cc1cccc(CO)c1)NC(=O)Nc1c2c(cc3c1CCC3)CCC2` (centres unmarked) [Example 2G, Methyl2-{[(1,2,3,5,6,7-hexahydro-s-indacen-4-yl)carbamoyl]amino}-3-[3-(hydroxymethyl)phenyl]propanoate], the IC50 was 1.4 µM.

As to `COC(=O)C[C@@H](NC(=O)Nc1c2c(cc3c1CCC3)CCC2)C(=O)OC` [Example 2W, 1,4-dimethyl(2R)-2-{[(1,2,3,5,6,7-hexahydro-s-indacen-4-yl)carbamoyl]amino}butanedioate], the IC50 was 2.9 µM.

Regarding `COCCOC(=O)[C@@H](Cc1cccnc1)NC(=O)Nc1c2c(cc3c1CCC3)CCC2` [Example 2MM, 2-methoxyethyl(2R)-2-{[(1,2,3,5,6,7-hexahydro-s-indacen-4-yl)carbamoyl]amino}-3-(pyridin-3-yl)propanoate], the IC50 was 2.9 µM.

Take `COC(=O)C(Cc1cccc(-c2cncn2C)c1)NC(=O)Nc1c2c(cc3c1CCC3)CCC2` (centres unmarked) [Example 2I, Methyl 2-{[(1,2,3,5,6,7-hexahydro-s-indacen-4-yl)carbamoyl]amino}-3-[3-(1-methyl-1H-imidazol-5-yl)phenyl]propanoate]: the IC50 stood at 0.96 µM.

`O=C(Nc1c2c(cc3c1CCC3)CCC2)N[C@H](Cc1ccccc1)C(=O)O` [Example 2SS, (2R)-2-{[(1,2,3,5,6,7-hexahydro-s-indacen-4-yl)carbamoyl]amino}-3-phenylpropanoic acid]: the IC50 amounted to 14 µM.

For the molecule `COC(=O)[C@@H](Cc1cccc(CO)c1)NC(=O)Nc1c2c(cc3c1CCC3)CCC2` [Example 2M, Methyl(2R)-2-{[(1,2,3,5,6,7-hexahydro-s-indacen-4-yl)carbamoyl]amino}-3-[3-(hydroxymethyl)phenyl]propanoate], the IC50 is 0.38 µM.

As for `COC(=O)[C@@H](CCSC)NC(=O)Nc1c2c(cc3c1CCC3)CCC2` [Example 2O, Methyl(2R)-2-{[(1,2,3,5,6,7-hexahydro-s-indacen-4-yl)carbamoyl]amino}-4-(methylsulfanyl)butanoate], the IC50 was 3.2 µM.

Consider `COC(=O)[C@@H](Cc1cnccn1)NC(=O)Nc1c2c(cc3c1CCC3)CCC2` [Example 2AF, Methyl (2R)-2-{[(1,2,3,5,6,7-hexahydro-s-indacen-4-yl)carbamoyl]amino}-3-(pyrazin-2-yl)propanoate], for which the IC50 was 0.46 µM.

As to `COC(=O)C(Cc1cccc(-c2cc[nH]n2)c1)NC(=O)Nc1c2c(cc3c1CCC3)CCC2` (centres unmarked) [Example 2J, Methyl 2-{[(1,2,3,5,6,7-hexahydro-s-indacen-4-yl)carbamoyl]amino}-3-[3-(1H-pyrazol-5-yl)phenyl]propanoate], the IC50 is 0.41 µM.

As to `O=C(Nc1c2c(cc3c1CCC3)CCC2)NC(Cc1ncccn1)C(=O)O` (centres unmarked) [Example 2AJ, 2-{[(1,2,3,5,6,7-hexahydro-s-indacen-4-yl)carbamoyl]amino}-3-(pyrimidin-2-yl)propanoic acid], the IC50 worked out at 15 µM.

Regarding `CCOC(=O)[C@@H](Cc1cccnc1)NC(=O)Nc1c2c(cc3c1CCC3)CCC2` [Example 2RR, ethyl(2R)-2-{[(1,2,3,5,6,7-hexahydro-s-indacen-4-yl)carbamoyl]amino}-3-(pyridin-3-yl)propanoate], the IC50 came to 1.7 µM.

Turning to `CCOC(=O)CNC(=O)Nc1c2c(cc3c1CCC3)CCC2` [Example 2X, ethyl 2-{[(1,2,3,5,6,7-hexahydro-s-indacen-4-yl)carbamoyl]amino}acetate], the IC50 came out at 1.5 µM.

As to `COC(=O)[C@@H](Cc1cncnc1)NC(=O)Nc1c2c(cc3c1CCC3)CCC2` [Example 2AE, Methyl (2R)-2-{[(1,2,3,5,6,7-hexahydro-s-indacen-4-yl)carbamoyl]amino}-3-(pyrimidin-5-yl)propanoate], the half-inhibitory concentration (IC50) came to 4.5 µM.

Regarding `COC(=O)C(Cc1cccc(C(C)=O)c1)NC(=O)Nc1c2c(cc3c1CCC3)CCC2` (centres unmarked) [Example 2C, Methyl 3-(3-acetylphenyl)-2-{[(1,2,3,5,6,7-hexahydro-s-indacen-4-yl)carbamoyl]amino}propanoate], the IC50 amounted to 0.35 µM.

For `COC(=O)[C@@H](Cc1cccc(C#N)c1)NC(=O)Nc1c2c(cc3c1CCC3)CCC2` [Example 2E, Methyl(2R)-3-(3-cyanophenyl)-2-{[(1,2,3,5,6,7-hexahydro-s-indacen-4-yl)carbamoyl]amino}propanoate], the IC50 amounted to 1.7 µM.

Consider `O=C(Nc1c2c(cc3c1CCC3)CCC2)N[C@H](Cc1cccnc1)C(=O)OC1CCC1` [Example 2NN, cyclobutyl (2R)-2-{[(1,2,3,5,6,7-hexahydro-s-indacen-4-yl)carbamoyl]amino}-3-(pyridin-3-yl)propanoate], for which the IC50 came to 0.6 µM.

Take `CCOC(=O)C(Cc1nc(C)no1)NC(=O)Nc1c2c(cc3c1CCC3)CCC2` (centres unmarked) [Example 2XX, Ethyl 2-{[(1,2,3,5,6,7-hexahydro-s-indacen-4-yl)carbamoyl]amino}-3-(3-methyl-1,2,4-oxadiazol-5-yl)propanoate]: the IC50 stood at 5.1 µM.

Consider `COC(=O)[C@@H](CC(N)=O)NC(=O)Nc1c2c(cc3c1CCC3)CCC2` [Example 2BB, methyl(2R)-3-carbamoyl-2-{[(1,2,3,5,6,7-hexahydro-s-indacen-4yl)carbamoyl]amino}propanoate], for which the IC50 amounted to 32 µM.

In the case of `COC[C@@H](NC(=O)Nc1c2c(cc3c1CCC3)CCC2)C(=O)OC` [Example 2II, methyl(2R)-2-{[(1,2,3,5,6,7-hexahydro-s-indacen-4-yl)carbamoyl]amino}-3-methoxypropanoate], the IC50 worked out at 5.3 µM.

For `COC(=O)[C@@H](Cc1cccc(N2CCCC2=O)c1)NC(=O)Nc1c2c(cc3c1CCC3)CCC2` [Example 2R, Methyl(2R)-2-{[(1,2,3,5,6,7-hexahydro-s-indacen-4-yl)carbamoyl]amino}-3-[3-(2-oxopyrrolidin-1-yl)phenyl]propanoate], the IC50 came to 0.33 µM.

As to `COC(=O)[C@@H](Cc1cccnn1)NC(=O)Nc1c2c(cc3c1CCC3)CCC2` [Example 2YY, Methyl (2R)-2-{[(1,2,3,5,6,7-hexahydro-s-indacen-4-yl)carbamoyl]amino}-3-(pyridazin-3-yl)propanoate], the IC50 is 3.3 µM.

Regarding `O=C(Nc1c2c(cc3c1CCC3)CCC2)N[C@H](Cc1cccc(-c2cc[nH]n2)c1)C(=O)O` [Example 2V, (2R)-2-{[(1,2,3,5,6,7-hexahydro-s-indacen-4-yl)carbamoyl]amino}-3-[3-(1H-pyrazol-3-yl)phenyl]propanoic acid], the IC50 was 0.52 µM.

On to `COC(=O)[C@@H](Cc1cccc(Nc2cc[nH]n2)c1)NC(=O)Nc1c2c(cc3c1CCC3)CCC2` [Example 2U, Methyl(2R)-2-{[(1,2,3,5,6,7-hexahydro-s-indacen-4-yl)carbamoyl]amino}-3-{3-[(1H-pyrazol-3-yl)amino]phenyl}propanoate], for which the IC50 came to 0.31 µM.

For `COC(=O)[C@@H](Cc1ccc(C#N)cc1)NC(=O)Nc1c2c(cc3c1CCC3)CCC2` [Example 2D, Methyl (2R)-3-(4-cyanophenyl)-2-{[(1,2,3,5,6,7-hexahydro-s-indacen-4-yl)carbamoyl]amino}propanoate], the half-inhibitory concentration (IC50) was 1.4 µM.

As for `O=C(Nc1c2c(cc3c1CCC3)CCC2)N[C@H](Cc1cccnc1)C(=O)OC1CCCC1` [Example 2PP, cyclopentyl(2R)-2-{[(1,2,3,5,6,7-hexahydro-s-indacen-4-yl)carbamoyl]amino}-3-(pyridin-3-yl)propanoate], the IC50 turned out to be 0.24 µM.

Turning to `COC(=O)[C@@H](Cc1cccc(NC(C)=O)c1)NC(=O)Nc1c2c(cc3c1CCC3)CCC2` [Example 2P, Methyl(2R)-3-(3-acetamidophenyl)-2-{[(1,2,3,5,6,7-hexahydro-s-indacen-4-yl)carbamoyl]amino}propanoate], the IC50 was 0.14 µM.

By IC50 is commonly meant the concentration that inhibits the measured activity by half.
